Data published in patent US11192902B1, “Heterocyclic diazenyl pyridinone copper(II) complexes as pharmacological antitumor agents” (King Abdulaziz University, priority 2020, dated 2021).

Assays:
[1] = system: human primary hepatocytes THLE-2 (normal cell line); experiment: Cytotoxic activity test on normal cell line THLE-2 (MTT assay); assay type: cell-based
Procedure: The samples were tested against the human primary hepatocytes THLE-2 (normal cell line, ATCC). Cells were maintained at sub-confluency at 37° C. in humidified air containing 5% CO2. The samples' concentrations ranged between (100 to 0.78 μg/ml) and the MTT assay was used to assess cell death.

[2] = system: MCF-7 human breast adenocarcinoma cells; experiment: Cytotoxicity against MCF-7 human breast adenocarcinoma cells (MTT); assay type: cell-based; details: MCF-7 cells, 48 hrs

CCCCCCn1c([O-])c(N=Nc2ccc(C)cc2)c(C)c(C#N)c1=O.CCCCCCn1c([O-])c(N=Nc2ccc(C)cc2)c(C)c(C#N)c1=O.[Cu+2] [D4]
Mean IC50, THLE-2 human normal hepatocytes ([1]; THLE-2 cells, 48 hrs, MTT, 100 to 0.78 μg/ml, mean): 169.76 μg/mL
effect on the normal cell line (safety) ([1]; THLE-2 normal cell line, at the high concentration of 100 ppm): safe
Mean IC50, MCF-7 human breast adenocarcinoma cells [2]: 83.72 µg/mL
